From patent publication US20240059671A1, “TYROSINE KINASE 2 (TYK2) DEGRADATION COMPOUNDS AND METHODS OF USE” (CULLGEN (SHANGHAI), INC., priority 2020, published 2024)

Target: TYK2 (Homo sapiens, UniProt P29597)
Test: TYK2 protein degradation in MOLT-4 cells by immunoblotting
Assay type: cell-based
Set-up: endogenous in cells; host or cells: MOLT-4
Conditions: MOLT-4 cells, 24 hours
Summary of the method: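 MOLT-4 cells were exposed to compounds at 0.5 and 5 μM for 24 h, then lysed in RIPA buffer with protease and phosphatase inhibitors. TYK2 was detected by SDS-PAGE immunoblot with chemiluminescence, and band densitometry gave percent degradation.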

TYK2, sequence (P29597 whole entry): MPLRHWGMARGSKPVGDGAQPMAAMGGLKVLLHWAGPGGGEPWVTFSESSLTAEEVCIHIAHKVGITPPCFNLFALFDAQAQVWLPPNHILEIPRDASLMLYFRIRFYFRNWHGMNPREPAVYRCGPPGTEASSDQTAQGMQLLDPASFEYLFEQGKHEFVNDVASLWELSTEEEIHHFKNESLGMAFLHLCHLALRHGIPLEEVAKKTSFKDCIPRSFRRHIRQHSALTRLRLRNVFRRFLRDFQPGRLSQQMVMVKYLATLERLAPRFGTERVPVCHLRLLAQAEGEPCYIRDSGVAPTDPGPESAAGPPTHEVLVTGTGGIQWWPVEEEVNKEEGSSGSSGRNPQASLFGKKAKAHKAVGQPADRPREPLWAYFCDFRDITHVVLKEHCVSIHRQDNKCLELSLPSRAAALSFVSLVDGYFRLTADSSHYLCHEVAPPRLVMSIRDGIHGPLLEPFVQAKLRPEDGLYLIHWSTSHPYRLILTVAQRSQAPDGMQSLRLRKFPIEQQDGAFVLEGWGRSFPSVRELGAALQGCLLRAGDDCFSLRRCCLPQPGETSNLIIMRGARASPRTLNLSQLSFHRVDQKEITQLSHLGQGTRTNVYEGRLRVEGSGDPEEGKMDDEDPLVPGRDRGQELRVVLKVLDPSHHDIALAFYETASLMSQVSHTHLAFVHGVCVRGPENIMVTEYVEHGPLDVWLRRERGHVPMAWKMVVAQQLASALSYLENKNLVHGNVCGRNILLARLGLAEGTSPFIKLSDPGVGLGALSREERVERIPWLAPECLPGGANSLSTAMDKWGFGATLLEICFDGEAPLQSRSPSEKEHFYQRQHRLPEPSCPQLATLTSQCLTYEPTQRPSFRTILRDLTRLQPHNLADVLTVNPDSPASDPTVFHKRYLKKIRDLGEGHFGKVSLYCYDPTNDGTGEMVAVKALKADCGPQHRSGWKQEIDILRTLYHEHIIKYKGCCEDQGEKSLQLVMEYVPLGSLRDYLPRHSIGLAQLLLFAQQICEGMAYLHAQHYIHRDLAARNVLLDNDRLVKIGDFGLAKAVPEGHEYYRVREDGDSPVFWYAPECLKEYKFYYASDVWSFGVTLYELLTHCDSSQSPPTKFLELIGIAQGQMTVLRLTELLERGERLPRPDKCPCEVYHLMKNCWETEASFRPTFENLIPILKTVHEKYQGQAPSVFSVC

TYK2 Degradation (0.5 μM)	TYK2 Degradation (MOLT-4, 0.5 μM)	TYK2 Degradation (MOLT-4, 5 μM)	TYK2 Degradation (5 μM)	SMILES
≤20%				CNC(=O)c1nnc(NC(=O)C2CC2)cc1Nc1cccc(-c2ncn(CCNC(=O)CCOCCOCCNc3cccc4c3C(=O)N(C3CCC(=O)NC3=O)C4=O)n2)c1OC (centres unmarked) [CPD-009, 6-(Cyclopropanecarboxamido)-4-((3-(1-(2-(3-(2-(2-((2-(2,6-dioxopiperidin-3-yl)-1,3-dioxoisoindolin-4-yl)amino)ethoxy)ethoxy)propanamido)ethyl)-1H-1,2,4-triazol-3-yl)-2-methoxyphenyl)amino)-N-methylpyridazine-3-carboxamide]
	C (C: ≤20% TYK2 degradation)	C (C: ≤20% TYK2 degradation)		CNC(=O)c1nnc(NC(=O)CNC(=O)CCCCNC(=O)C[C@H](NC(=O)[C@@H]2C[C@@H](O)CN2C(=O)[C@@H](NC(=O)C2(F)CC2)C(C)(C)C)c2ccc(-c3scnc3C)cc2)cc1Nc1cccc(-c2ncn(C)n2)c1OC [CPD-089, 6-(2-(5-((S)-3-((2S,4R)-1-((S)-2-(1-Fluorocyclopropane-1-carboxamido)-3,3-dimethylbutanoyl)-4-hydroxypyrrolidine-2-carboxamido)-3-(4-(4-methylthiazol-5-yl)phenyl)propanamido)pentanamido)acetamido)-4-((2-methoxy-3-(1-methyl-1H-1,2,4-triazol-3-yl)phenyl)amino)-N-methylpyridazine-3-carboxamide]
≤20%			≤20%	CNC(=O)c1nnc(NC(=O)CNC(=O)COCC(=O)N[C@H](C(=O)N2C[C@H](O)C[C@H]2C(=O)NCc2ccc(-c3scnc3C)cc2)C(C)(C)C)cc1Nc1cccc(-c2ncn(C)n2)c1OC [CPD-025, 6-(2-(2-(2-(((S)-1-((2S,4R)-4-Hydroxy-2-((4-(4-methylthiazol-5-yl)benzyl)carbamoyl)pyrrolidin-1-yl)-3,3-dimethyl-1-oxobutan-2-yl)amino)-2-oxoethoxy)acetamido)acetamido)-4-((2-methoxy-3-(1-methyl-1H-1,2,4-triazol-3-yl)phenyl)amino)-N-methylpyridazine-3-carboxamide]
≤20%			≤20%	CNC(=O)c1nnc(NC(=O)CNC(=O)CCOCCOCCOCCOCCOCCC(=O)N[C@H](C(=O)N2C[C@H](O)C[C@H]2C(=O)NCc2ccc(-c3scnc3C)cc2)C(C)(C)C)cc1Nc1cccc(-c2ncn(C)n2)c1OC [CPD-033, N^1—((S)-1-((2S,4R)-4-Hydroxy-2-((4-(4-methylthiazol-5-yl)benzyl)carbamoyl)pyrrolidin-1-yl)-3,3-dimethyl-1-oxobutan-2-yl)-N^19-(2-((5-((2-methoxy-3-(1-methyl-1H-1,2,4-triazol-3-yl)phenyl)amino)-6-(methylcarbamoyl)pyridazin-3-yl)amino)-2-oxoethyl)-4,7,10,13,16-pentaoxanonadecanediamide]
≤20%				CNC(=O)c1nnc(NC(=O)C2CC2)cc1Nc1cccc(-c2ncn(CCNC(=O)CCNc3ccc4c(c3)C(=O)N(C3CCC(=O)NC3=O)C4=O)n2)c1OC (centres unmarked) [CPD-014, 6-(Cyclopropanecarboxamido)-4-((3-(1-(2-(3-((2-(2,6-dioxopiperidin-3-yl)-1,3-dioxoisoindolin-5-yl)amino)propanamido)ethyl)-1H-1,2,4-triazol-3-yl)-2-methoxyphenyl)amino)-N-methylpyridazine-3-carboxamide]
	C (C: ≤20% TYK2 degradation)	C (C: ≤20% TYK2 degradation)		CNC(=O)c1nnc(NC(=O)CNC(=O)CCCOc2cc(-c3scnc3C)ccc2CNC(=O)[C@@H]2C[C@@H](O)CN2C(=O)[C@@H](NC(=O)C2(F)CC2)C(C)(C)C)cc1Nc1cccc(-c2ncn(C)n2)c1OC [CPD-103, 6-(2-(4-(2-(((2S,4R)-1-((S)-2-(1-Fluorocyclopropane-1-carboxamido)-3,3-dimethylbutanoyl)-4-hydroxypyrrolidine-2-carboxamido)methyl)-5-(4-methylthiazol-5-yl)phenoxy)butanamido)acetamido)-4-((2-methoxy-3-(1-methyl-1H-1,2,4-triazol-3-yl)phenyl)amino)-N-methylpyridazine-3-carboxamide]
≤20%			≤20%	CNC(=O)c1nnc(NC(=O)C2CC2)cc1Nc1cccc(-c2ncn(CCNC(=O)COCCOCC(=O)N[C@H](C(=O)N3C[C@H](O)C[C@H]3C(=O)NCc3ccc(-c4scnc4C)cc3)C(C)(C)C)n2)c1OC [CPD-068, 6-(Cyclopropanecarboxamido)-4-((3-(1-((S)-13-((2S,4R)-4-hydroxy-2-((4-(4-methylthiazol-5-yl)benzyl)carbamoyl)pyrrolidine-1-carbonyl)-14,14-dimethyl-4,11-dioxo-6,9-dioxa-3,12-diazapentadecyl)-1H-1,2,4-triazol-3-yl)-2-methoxyphenyl)amino)-N-methylpyridazine-3-carboxamide]
≤20%			≤20%	CNC(=O)c1nnc(NC(=O)C2CC2)cc1Nc1cccc(-c2ncn(CCNC(=O)CCOCCOCCC(=O)N[C@H](C(=O)N3C[C@H](O)C[C@H]3C(=O)NCc3ccc(-c4scnc4C)cc3)C(C)(C)C)n2)c1OC [CPD-069, 6-(Cyclopropanecarboxamido)-4-((3-(1-((S)-15-((2S,4R)-4-hydroxy-2-((4-(4-methylthiazol-5-yl)benzyl)carbamoyl)pyrrolidine-1-carbonyl)-16,16-dimethyl-4,13-dioxo-7,10-dioxa-3,14-diazaheptadecyl)-1H-1,2,4-triazol-3-yl)-2-methoxyphenyl)amino)-N-methylpyridazine-3-carboxamide]
≤20%				CNC(=O)c1nnc(NC(=O)C2CC2)cc1Nc1cccc(-c2ncn(CCNC(=O)CCOCCOCCNc3ccc4c(c3)C(=O)N(C3CCC(=O)NC3=O)C4=O)n2)c1OC (centres unmarked) [CPD-019, 6-(Cyclopropanecarboxamido)-4-((3-(1-(2-(3-(2-(2-((2-(2,6-dioxopiperidin-3-yl)-1,3-dioxoisoindolin-5-yl)amino)ethoxy)ethoxy)propanamido)ethyl)-1H-1,2,4-triazol-3-yl)-2-methoxyphenyl)amino)-N-methylpyridazine-3-carboxamide]

SMILES	TYK2 Degradation (0.5 μM)	TYK2 Degradation (MOLT-4, 0.5 μM)	TYK2 Degradation (MOLT-4, 5 μM)	TYK2 Degradation (5 μM)
CNC(=O)c1nnc(NC(=O)CNC(=O)CCCCCCCCCCNC(=O)C[C@H](NC(=O)[C@@H]2C[C@@H](O)CN2C(=O)[C@@H](NC(=O)C2(F)CC2)C(C)(C)C)c2ccc(-c3scnc3C)cc2)cc1Nc1cccc(-c2ncn(C)n2)c1OC [CPD-095, 6-(2-(11-((S)-3-((2S,4R)-1-((S)-2-(1-Fluorocyclopropane-1-carboxamido)-3,3-dimethylbutanoyl)-4-hydroxypyrrolidine-2-carboxamido)-3-(4-(4-methylthiazol-5-yl)phenyl)propanamido)undecanamido)acetamido)-4-((2-methoxy-3-(1-methyl-1H-1,2,4-triazol-3-yl)phenyl)amino)-N-methylpyridazine-3-carboxamide]		B (B: <60% TYK2 degradation, and >20% TYK2 degradation)	A (A: ≥60% TYK2 degradation)	
